# Biological target: T1, ABCG2 (Homo sapiens, UniProt Q9UNQ0)
# T1 sequence (Q9UNQ0 1-655): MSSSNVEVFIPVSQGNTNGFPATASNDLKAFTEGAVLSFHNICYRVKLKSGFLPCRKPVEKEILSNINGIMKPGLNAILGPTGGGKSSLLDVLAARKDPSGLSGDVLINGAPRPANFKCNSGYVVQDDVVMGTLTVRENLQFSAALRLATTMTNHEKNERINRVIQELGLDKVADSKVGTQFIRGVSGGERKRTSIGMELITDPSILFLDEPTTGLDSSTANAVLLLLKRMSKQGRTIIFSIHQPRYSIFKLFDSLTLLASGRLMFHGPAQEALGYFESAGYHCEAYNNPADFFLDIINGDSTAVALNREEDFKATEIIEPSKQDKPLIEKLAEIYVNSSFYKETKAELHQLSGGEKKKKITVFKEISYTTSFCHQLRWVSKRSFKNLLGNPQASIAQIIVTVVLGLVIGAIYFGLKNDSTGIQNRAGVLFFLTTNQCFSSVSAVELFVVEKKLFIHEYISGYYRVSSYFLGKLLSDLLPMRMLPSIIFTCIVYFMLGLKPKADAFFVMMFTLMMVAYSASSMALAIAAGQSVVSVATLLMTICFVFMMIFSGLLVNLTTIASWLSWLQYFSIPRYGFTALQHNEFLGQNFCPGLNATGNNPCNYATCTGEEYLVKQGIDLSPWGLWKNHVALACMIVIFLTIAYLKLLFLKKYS
# Experiment: inhibition of […]IAAP photoaffinity labeling in MCF7-FLV1000 membrane vesicles
# Format: binding
structure (smiles),measurement,value
N#Cc1ccc(-c2c(-c3ncn[nH]3)sc(N3CCOCC3)c2C#N)c(F)c1 [PF-4989216],% inhibition of photolabeling at 10 μM,~ 55
